Experimental data from a melting point compilation (Tetko et al.).

Structure (SMILES)	melting point [°C]
COC(=O)c1sc2c(c1N)CCC(C(C)(C)C)C2 (stereo unspecified)	153 to 155
COC(=O)c1ccccc1CS(=O)(=O)Cl	85 to 87
O=c1c(Cl)nccn1C1CC1	90 to 92
O=C(O)CCc1ccc(-c2ccccc2)o1	118 to 120
Fc1ccc(NCc2ccccn2)c(F)c1	52 to 54
O=C(NC1CC=CCC1)C(F)(F)F (stereo unspecified)	58 to 60
CCOc1ccc(C(=O)NCC(=O)O)cc1	154 to 156
O=C(O)c1ccc2ccc(Cl)cc2n1	179 to 181
COc1ccc(-c2nnc(SCC(=O)O)o2)cc1	140 to 143
Nc1cccc(-c2ncco2)c1	61 to 63
O=C(O)c1cc(S(=O)(=O)Cl)c(F)c(Cl)c1F	191 to 193
O=C(NC1CCCC1)c1cnc(Cl)c(Cl)c1	159 to 161
N#Cc1cc(-c2ccccc2)sc1N	190 to 192
COc1ccc(CNS(=O)(=O)c2c[nH]nc2N)cc1	137 to 139
CCc1ccc(N)cc1S(N)(=O)=O	136 to 138
Nc1ccc(N2CCSCC2)cc1C(=O)O	176 to 178
O=C(O)c1cc(S(=O)(=O)N2CCOCC2)ccc1I	183 to 185
O=C(O)c1cc(Cl)nc(N2CCCC2)c1	215 to 217
CCc1ccc(-c2noc(S)n2)cc1	159 to 161
O=C1CNC(=O)N1CCBr	134 to 136
Cc1nc(N)sc1Cc1cccc(F)c1	82 to 84
Nc1nonc1-c1ccc(Cl)cc1Cl	105 to 107
N#CCc1nnc2n1CCCCC2	113 to 115
Cc1nc(-c2c(C)c(C)nn(C)c2=O)sc1C(=O)O	239 to 241

Structure (SMILES)	melting point [°C]
O=[N+]([O-])c1c(Cl)ccc2ncccc12	119 to 121
CC(C#N)NC(=O)OC(C)(C)C (stereo unspecified)	94 to 96
O=C(NCC1CCCCN1)c1ccccc1 (stereo unspecified)	109 to 111
O=C1CS/C(=C/C(=O)C2CC2)N1	188 to 190
O=C(CCC1CCCCC1)Nc1ccc(C(=O)O)c(O)c1	209 to 211
CC(C)(C)c1ccc(C(=O)NCCC(=O)O)cc1	129 to 131
O=C(O)c1c[nH]c2cccc(F)c12	209 to 211
COc1ccc(S(=O)(=O)Nc2ncc(Br)s2)cc1	132 to 134
N#CCOc1cc(F)ccc1N	59 to 61
Cc1cc2nc(-c3cccc4ncccc34)[nH]c2cc1C	129 to 131
O=C(O)c1ccc(NS(=O)(=O)c2ccccc2)cc1	209 to 211
O=C(CCl)N1CC=C(c2c[nH]c3ccccc23)CC1	172 to 174
CC(Cl)C(=O)NCCc1ccc(S(N)(=O)=O)cc1 (stereo unspecified)	159 to 161
Nc1ccc(NC(=O)c2ccccc2)nc1	139 to 141
Nc1cccc(CS(=O)C2CCOCC2)c1 (stereo unspecified)	125 to 127
O=c1[nH]c(-c2cccc(Oc3ccccc3)c2)no1	189 to 191
Nc1ncc(Cc2cccc(Cl)c2)s1	99 to 101
O=C(CCl)NCc1cccc(C(=O)NC2CC2)c1	137 to 139
NS(=O)(=O)Cc1cccc(C(=O)O)c1	234 to 236
Cc1cccc(NC(=O)CCl)c1	128 to 130
Cc1[nH]c(SCC(=O)O)nc1Cc1ccccc1	183 to 185
Nc1ccc(F)cc1-c1nc(CCOc2ccccc2)no1	122 to 124
COc1cc(/C=C/C(=O)O)cc2c1OCCO2	182 to 185
CCc1cc(NN)nc(-c2ccccn2)n1	110 to 112

Structure (SMILES)	melting point [°C]
Fc1c(Cl)ccc2c(Cl)ccnc12	129 to 131
O=C(O)C1SCCS1	84 to 86
NNC(=O)Nc1ccc(C(=O)O)cc1	192 to 194
NC(=NO)C12CC3CC(CC(C3)C1)C2	152 to 154
CS(=O)(=O)Cc1nc2ccccc2n1CC(=O)O	249 to 251
NCCNS(=O)(=O)Cc1ccon1	89 to 91
Cc1nc(-c2ccc(F)c(F)c2)sc1C(=O)O	209 to 211
COC(=O)c1ccc(C)c(NCc2[nH]cnc2C)c1	180 to 182
COCC(C)n1c(SCC(=O)O)nnc1-c1ccccc1 (stereo unspecified)	139 to 141
COC(=O)C(C)Nc1ccc([N+](=O)[O-])cc1 (stereo unspecified)	99 to 101
CC(C)(C)OC(=O)Nc1ccc(F)c(N)c1	122 to 124
O=C(O)C(NCc1ccccc1)C1CC1 (stereo unspecified)	228 to 230
COc1ccc(C2CCN2S(=O)(=O)c2ccc(C)cc2)cc1 (stereo unspecified)	102 to 104
FC(F)(F)c1cccc2c(Cl)ncnc12	144 to 146
CCOc1ccc2c(c1)C=C(C(=O)O)CO2	186 to 188
Cc1sc2ccc(Cl)cc2c1S(=O)(=O)Cl	148 to 150
OC1CCCC1N1CCN(c2cccc(Cl)c2)CC1 (stereo unspecified)	99 to 101
CC(C)c1ccc(C2(C(=O)O)CCCC2)cc1	153 to 155
Cc1[nH]c(-c2ncccn2)nc(=O)c1CC(=O)O	194 to 196
Nc1nc(C(F)(F)F)cs1	66 to 68
CC(=O)SC(C(=O)O)c1ccccc1 (stereo unspecified)	79 to 81
COc1ccc(C=O)c2cc(C(=O)O)oc12	264 to 266
Cc1ccc(O)c(C(=O)NCC(C)C)c1	51 to 53
